For eleven molecules, Activity, EC50 and T/C results are on record in ChEMBL document CHEMBL1151383, “Antitumor agents 50. 1 Morindaparvin-A, a new antileukemic anthraquinone, and alizarin-1-methyl ether from Morinda parvifolia, and the antileukemic activity of the related derivatives” (1982).

In brackets after ≈: the same amount, converted by molar mass. Activity calls are given as the source filed them. The rule behind the calls is not given here.

Common to all, as to type: functional
Assay [1] relates to P388. As to the kind of experiment: Antileukemic activity against mouse P388 cells xenografted in BDF1 mouse at 10 mg/kg/day relative to control.
Assay [2] has as its system P388. The assay is described as follows: Cytotoxicity against mouse P388 cells. Particulars: read-out: ED50 (the source's name).
The subject of another assay is KB. As to the kind of experiment: Cytotoxicity against human KB cells. The note with it: read-out: ED50 (the source's name).
Assay [3] is described as follows: Antitumor activity against mouse CA-755 cells xenografted in mouse assessed as reduction in tumor weight at 450 mg/kg/day. On the set-up: scale not given: the % may be the effect or the level left.

As usually defined, the T/C is the result in the treated group divided by that in the control group, in per cent.

With `CC(C)=CC(=O)Oc1ccc2c(c1O)C(=O)c1ccccc1C2=O`, the outcome in the assay on P388 [1] was inactive.

In the case of `COc1c(O)ccc2c1C(=O)c1ccccc1C2=O`, the EC50 is 27 µg/mL (≈ 106 µM) in the assay on P388 [2] and more than 10 µg/mL in the assay with KB. In addition, the T/C with P388 [1] was 136%.

Consider `COc1ccc2c(c1O)C(=O)c1ccccc1C2=O`, for which the T/C in the assay with P388 [1] came to 126%.

As to `CC(=O)Oc1ccc2c(c1OC(C)=O)C(=O)c1ccccc1C2=O`, the outcome in the assay on P388 [1] was inactive.

Take `CC(=O)Oc1ccc2c(c1O)C(=O)c1ccccc1C2=O`: the outcome in the assay on P388 [1] was inactive.

For `O=C(/C=C/c1ccccc1)Oc1ccc2c(c1OC(=O)/C=C/c1ccccc1)C(=O)c1ccccc1C2=O`, in the assay on P388 [1], the outcome was inactive.

As for `O=C(/C=C/c1ccccc1)Oc1ccc2c(c1O)C(=O)c1ccccc1C2=O`, the outcome in the assay with P388 [1] was inactive.

The molecule `O=C1c2ccccc2C(=O)c2c1ccc(O)c2O` [ATHRAQUINONES A] came in with a T/C in the assay on P388 [1] of 134%. In addition, in assay [3], the Activity is 60%.

Consider `CC(C)=CC(=O)Oc1ccc2c(c1OC(=O)C=C(C)C)C(=O)c1ccccc1C2=O`, for which the result in the assay on P388 [1] was inactive.

For the molecule `O=C1c2ccccc2C(=O)c2c1ccc1c2OCO1`, the EC50 with P388 [2] is 1.85 µg/mL (≈ 7.33 µM); in the assay on KB it was more than 10 µg/mL. Besides, the T/C in the assay with P388 [1] is 129%.

Molecule `O=C1c2ccccc2C(=O)c2c1ccc1c2OCCO1` had a T/C in the assay with P388 [1] of 130%.
